The results in this text go back to patent publication US20240270741A1 (Cogent Biosciences, Inc., priority 2023, published 2024).

pIC50: −log10 of the molar value.

For test [1], the target named is FGFR2 (Homo sapiens, UniProt P21802). Description: FGFR wild type enzyme assay (HTRF KinEASE-TK), FGFR2. As to conditions: for pIC50: FGFR2 Enz, Table 4; for IC50: Enz FGFR2 (nM). (TR-FRET usually uses a lanthanide donor and a delayed reading to cut background.)
The target of test [2] is FGFR2 V564I (Homo sapiens, UniProt P21802, V564I). Briefly: FGFR mutant enzyme assay (HTRF KinEASE-TK), FGFR2 V564I. It is filed as biochemical. As to conditions: Table 4. From the text: (§1) (Catalogue number 62TK0PEC).
The target in test [3] is FGFR2-WT (Homo sapiens, UniProt P21802). Briefly: Phosphorylated FGFR2-WT (pFGFR2-WT) cell assay, KATOIII cells. The format is cell-based. As to conditions: Table 4. How it is done: Phosphorylated FGFR2-WT (pFGFR2-WT) Cell Assay:
KATOIII cells were grown in the appropriate growth medium, IMDM supplemented with 20% fetal bovine serum. Cells were seeded into a 384-well at 1×10^5 cells/25 μL/well. Cells were treated with compound using three-fold serial dilutions at final concentrations ranging from 10 μM to 0.5 nM. Compound was incubated on cells for 1 hour at 37° C., 5% CO2.
Following the 1-hour incubation with compounds, cell lysates were prepared and phospho FGFR2 was measured using the HTRF Phospho-FGFR2 (TYR653/654) Detection Kits (CisBio, cat #64FGFR2Y6PEG). 8 μL of cell lysis buffer (4×) supplied with 1× Phospho and Total protein blocking reagent (CisBio, cat #64FGFR2Y6PEG, CisBio, cat #64KB1AAC) was then added to the wells. Cells were incubated with lysis buffer for 40 minutes at 4° C. under shaking conditions. Plates were centrifuged at 1500 rpm for 3 min and then 16 μL of cell lysate was transferred from the cell-culture plate to a small volume detection plate with the added premixed antibody solutions (4 μL) (CisBio, cat #64FGFR2Y6PEG). Plates were centrifuged at 1000 rpm for 1 min then incubated at 25° ° C. for 120 min, then overnight at 4° C. Plates were read on the EnVision multimode plate reader via HTRF dual wavelength detection. One hundred percent of control (POC) was determined using DMSO treated samples, and 0 POC was determined using the top concentration of a control compound. A 4-parameter logistic curve was fit to the POC values as a function of compound concentration to determine the IC50 value.

For test [4], the target named is FGFR2 V564F (Homo sapiens, UniProt P21802, V564F). Briefly: FGFR mutant enzyme assay (HTRF KinEASE-TK), FGFR2 V564F. Conditions: Table 4. It is filed as biochemical.
From the text: as §1

The target of test [5] is FGFR2 N549H (Homo sapiens, UniProt P21802, N549H). Description: FGFR mutant enzyme assay (HTRF KinEASE-TK), FGFR2 N549H. As to conditions: Table 4. The format is biochemical.
From the text: as §1

Sequence of FGFR2 V564I (P21802 399-821 V564I limits assumed): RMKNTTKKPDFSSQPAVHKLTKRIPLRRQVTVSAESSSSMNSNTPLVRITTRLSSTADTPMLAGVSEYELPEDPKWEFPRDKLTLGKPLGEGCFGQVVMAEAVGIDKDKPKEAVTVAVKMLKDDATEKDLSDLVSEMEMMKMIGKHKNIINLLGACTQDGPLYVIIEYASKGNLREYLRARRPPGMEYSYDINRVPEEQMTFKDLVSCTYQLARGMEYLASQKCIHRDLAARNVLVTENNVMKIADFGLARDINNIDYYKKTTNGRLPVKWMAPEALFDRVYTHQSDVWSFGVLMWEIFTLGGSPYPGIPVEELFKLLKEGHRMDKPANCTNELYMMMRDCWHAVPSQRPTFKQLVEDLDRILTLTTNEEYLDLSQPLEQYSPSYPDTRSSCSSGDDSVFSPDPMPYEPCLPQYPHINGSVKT
Sequence of FGFR2-WT (P21802 22-821): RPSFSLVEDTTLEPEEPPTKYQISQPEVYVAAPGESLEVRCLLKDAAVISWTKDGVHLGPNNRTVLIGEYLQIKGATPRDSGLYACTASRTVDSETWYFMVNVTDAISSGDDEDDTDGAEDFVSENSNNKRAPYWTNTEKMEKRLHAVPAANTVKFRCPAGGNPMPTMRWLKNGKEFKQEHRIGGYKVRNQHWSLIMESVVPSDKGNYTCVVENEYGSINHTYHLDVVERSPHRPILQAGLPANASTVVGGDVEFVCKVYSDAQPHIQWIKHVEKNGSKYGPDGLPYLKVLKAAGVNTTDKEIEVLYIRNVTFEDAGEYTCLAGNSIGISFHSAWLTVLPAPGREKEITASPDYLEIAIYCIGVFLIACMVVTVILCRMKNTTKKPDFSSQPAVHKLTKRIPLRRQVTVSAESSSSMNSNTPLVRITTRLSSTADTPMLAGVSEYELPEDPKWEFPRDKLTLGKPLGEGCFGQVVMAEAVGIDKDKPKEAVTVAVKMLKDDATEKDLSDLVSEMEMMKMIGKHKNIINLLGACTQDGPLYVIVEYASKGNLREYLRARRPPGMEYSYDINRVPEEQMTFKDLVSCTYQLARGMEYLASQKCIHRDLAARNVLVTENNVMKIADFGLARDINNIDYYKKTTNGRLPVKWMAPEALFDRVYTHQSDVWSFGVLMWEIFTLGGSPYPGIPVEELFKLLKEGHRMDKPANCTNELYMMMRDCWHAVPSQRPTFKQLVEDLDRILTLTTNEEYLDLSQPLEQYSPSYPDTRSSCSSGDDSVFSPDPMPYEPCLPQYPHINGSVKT
Sequence of FGFR2 (P21802 399-821 limits assumed): as the sequence (P21802 399-821 V564I limits assumed) above, with I166V counted along it
Sequence of FGFR2 N549H (P21802 399-821 N549H limits assumed): as the sequence (P21802 399-821 V564I limits assumed) above, with N151H, I166V counted along it
Sequence of FGFR2 V564F (P21802 399-821 V564F limits assumed): as the sequence (P21802 399-821 V564I limits assumed) above, with I166F counted along it

As usually defined, the pIC50 is the IC50 on a negative log10 scale, so that one unit is a factor of ten. A higher pIC50 goes with a small IC50. With `N#Cc1cnn2cc(-c3cnn([C@H]4CCCNC4)c3)cc(Sc3ccccn3)c12` [Example 1, 6-[1-[(3S)-3-Piperidyl]pyrazol-4-yl]-4-(2-pyridylsulfanyl) pyrazolo[1,5-a]pyridine-3-carbonitrile], the pIC50 was 8.52 in test [1]; 8.22 in test [2]; 7.60 in test [3]; 8.52 in test [4]; 8.82 in test [5].

A word on the IC50: it is the concentration that inhibits the measured activity by half. Higher therefore signals lower potency. In turn, `CN[C@H]1CC[C@@H](n2ncc(-c3cc(Sc4ccccc4C#N)c4c(C#N)cnn4c3)c2C)CC1` [Example 117, -[(5-fluoro-2-methyl-4-pyridyl)sulfany1]-6-[5-methyl-1-(4-piperidyl)pyrazol-4-yl]pyrazolo[1,5-a]pyridine-3-carbonitrile] had an IC50 in test [1] of 0.3 nM. Further, the pIC50 is 9.52 in test [1]; 9.00 in test [2]; 7.55 in test [3]; 9.30 in test [4]; 9.70 in test [5].

Regarding `Cc1nc(Sc2cc(-c3cnn(C4CCN(C)CC4)c3C)cn3ncc(C#N)c23)ccc1F` [Example 128], the IC50 in test [1] was determined as 5 nM. The pIC50 in test [1] was 9.92; in test [2], 7.92; in test [3] it was 7.39; in test [4], 8.05; in test [5], 8.40.

On to `Cc1c(-c2cc(Sc3cccc(F)c3C#N)c3c(C#N)cnn3c2)cnn1C1CCNCC1` [Example 130, 4-(2-cyano-3-fluoro-phenyl)sulfanyl-6-[5-methyl-1-(4-piperidyl)pyrazol-4-yl]pyrazolo[1,5-a]pyridine-3-carbonitrile], for which, in test [1], the IC50 was 2 nM. In addition, the pIC50 in test [1] was 9.00; in test [2], 8.30; in test [3], 6.93; in test [4], 8.40; in test [5], 8.52.

Compound `CN(CCO)C(=O)Cn1cc(-c2cc(Sc3ccccc3C#N)c3c(C#N)cnn3c2)cn1` [Example 669, 2-(4-(3-cyano-4-((2-cyanophenyl)thio)pyrazolo [1,5-a]pyridin-6-yl)-1H-pyrazol-1-yl)-N-(2-hydroxyethyl)-N-methylacetamide] registered an IC50 in test [1] (FGFR2 wild type enzyme assay) of 1 nM.

In turn, `N#Cc1ccccc1Sc1cc(-c2cnn(CC(=O)N3CCNCC3)c2)cn2ncc(C#N)c12` [Example 670, 4-((2-cyanophenyl)thio)-6-(1-(2-oxo-2-(piperazin-1-yl)ethyl)-1H-pyrazol-4-yl)pyrazolo[1,5-a]pryridine-3-carbonitrile] displayed an IC50 in test [1] (FGFR2 wild type enzyme assay) of 1 nM.

With `CN(C)C(=O)CCn1cc(-c2cc(Sc3ccccc3C#N)c3c(C#N)cnn3c2)cn1` [Example 671, 3-(4-(3-cyano-4-((2-cyanophenyl)thio)pyrazolo [1,5-a]pyridin-6-yl)-1H-pyrazol-1-yl)-N,N-dimethylpropanamide], half-maximal inhibition in test [1] (FGFR2 wild type enzyme assay) (IC50) required 0.5 nM. Against the preceding compound, the IC50 is about 2-fold lower.

On to `CNC(=O)CCn1cc(-c2cc(Sc3ccccc3C#N)c3c(C#N)cnn3c2)cn1` [Example 672, 3-(4-(3-cyano-4-((2-cyanophenyl)thio)pyrazolo [1,5-a]pyridin-6-yl)-1H-pyazol-1-yl)-N-methylpropanamide], for which the IC50 in test [1] (FGFR2 wild type enzyme assay) was 1 nM.

Compound `N#Cc1ccccc1Sc1cc(-c2cnn(CCC(=O)N3CC[C@@H](O)C3)c2)cn2ncc(C#N)c12` [Example 673, (R)-4-((2-cyanophenyl)thio)-6-(1-(3-(3-hydroxypyrrolidin-1-yl)-3-oxopropyl)-1H-pyrazol-4-yl)pyrazolo[1,5-a]pyridine-3-carbonitrile] returned an IC50 in test [1] (FGFR2 wild type enzyme assay) of 0.2 nM.

The compound `N#Cc1ccccc1Sc1cc(-c2cnn(CCC(=O)N3CC[C@H](O)C3)c2)cn2ncc(C#N)c12` [Example 674, (S)-4-((2-cyanophenyl)thio)-6-(1-(3-(3-hydroxypyrrolidin-1-yl)-3-oxopropyl)-1H-pyrazol-4-yl)pyrazolo[1,5-a]pyridine-3-carbonitrile] registered an IC50 in test [1] (FGFR2 wild type enzyme assay) of 1 nM.

`N#Cc1ccccc1Sc1cc(-c2cnn(CCC(=O)N3CCNCC3)c2)cn2ncc(C#N)c12` [Example 675, 4-((2-cyanophenyl)thio)-6-(1-(3-oxo-3-(piperazin-1-yl)propyl)-1H-pyrazol-4-yl)pyrazolo[1,5-a]pyridine-3-carbonitrile] returned an IC50 in test [1] (FGFR2 wild type enzyme assay) of 0.6 nM. Compared with the last compound, the IC50 is about 1.7-fold lower.

`Cc1c(-c2cc(Sc3ccc(F)cc3C#N)c3c(C#N)cnn3c2)cnn1CC[C@@H](O)CO` [Example 676, (R)-4-((2-cyano-4-fluorophenyl)thio)-6-(1-(3,4-dihydroxybutyl)-5-methyl-1H-pyrazol-4-yl)pyrazolo[1,5-a]pyridine-3-carbonitrile] showed an IC50 in test [1] (FGFR2 wild type enzyme assay) of 3 nM. This IC50 lies about 5-fold higher than the previous one.

With `C[C@H](O)CN1CC[C@H](n2cc(-c3cc(Sc4ccccc4C#N)c4c(C#N)cnn4c3)cn2)C1` [Example 677, 4-((2-cyanophenyl)thio)-6-(1-((S)-1-((S)-2-hydroxypropyl)pyrrolidin-3-yl)-1H-pyrazol-4-y)pyrazolo[1,5-a]pyridine-3-carbonitrile], half-maximal inhibition in test [1] (FGFR2 wild type enzyme assay) (IC50) required 0.3 nM.

Take `C[C@@H](O)CN1CC[C@H](n2cc(-c3cc(Sc4ccccc4C#N)c4c(C#N)cnn4c3)cn2)C1` [Example 678, 4-((2-cyanophenyl)thio)-6-(1-((S)-1-((R)-2-hydroxypropyl)pyrrolidin-3-yl)-1H-pyrazol-4-yl)pyrazolo[1,5-a]pyridine-3-carbonitrile]: the IC50 in test [1] (FGFR2 wild type enzyme assay) was 0.4 nM.

`Cc1c(-c2cc(Sc3ccc(F)cc3C#N)c3c(C#N)cnn3c2)cnn1[C@H]1CC[C@H](OP(=O)(O)O)CC1` [Example 679, sodium (1r,4r)-4-(4-(3-cyano-4-((2-cyano-4-fluorophenyl)thio)pyrazolo [1,5-a]pyridin-6-yl)-5-methyl-1H-pyrazol-1-yl)cyclohexyl phosphate] displayed an IC50 in test [1] (FGFR2 wild type enzyme assay) of 1.6 nM.

For the compound `Cc1c(-c2cc(Sc3ccc(F)cc3C#N)c3c(C#N)cnn3c2)cnn1[C@H]1CC[C@H](OC(=O)[C@@H](N)C(C)C)CC1` [Example 680, (1r,4S)-4-(4-(3-cyano-4-((2-cyano-4-fluorophenyl)thio)pyrazolo [1,5-a]pyridin-6-yl)-5-methyl-1H-pyrazol-1-yl)cyclohexyl L-valinate], it took 1 nM to reach half-maximal inhibition in test [1] (FGFR2 wild type enzyme assay) (IC50).
